Measured values published in BindingDB's records for doi:10.1021/jm00163a063 (Merrell Dow Research Institute, 1990).
Peptide text beside a SMILES is read from it. * marks the point of attachment. MeOSuc = COC(=O)CCC(=O)*; Cbz = O=C(OCc1ccccc1)*; Boc = CC(C)(C)OC(=O)*; CF3 = FC(F)(F)*

What was measured:
[1] = Binding affinity against human Elastase for more active diasteriomer
[2] = target: Neutrophil elastase (Homo sapiens) (UniProt P08246); assay: Binding affinity against human Elastase
[3] = target: Cathepsin G (Rattus norvegicus); assay: Binding affinity against rat Cathepsin G

Sequence of Neutrophil elastase (Homo sapiens) (P08246 whole entry, looked up): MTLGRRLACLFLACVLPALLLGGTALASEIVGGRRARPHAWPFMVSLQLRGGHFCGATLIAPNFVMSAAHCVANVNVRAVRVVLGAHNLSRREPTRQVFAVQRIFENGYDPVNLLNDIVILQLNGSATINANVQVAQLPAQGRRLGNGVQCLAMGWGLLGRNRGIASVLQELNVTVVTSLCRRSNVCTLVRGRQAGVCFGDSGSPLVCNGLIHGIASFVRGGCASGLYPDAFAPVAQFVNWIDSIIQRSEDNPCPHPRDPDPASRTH

| Structure (SMILES) | Ki [1] [nM] | further results |
| --- | --- | --- |
| COC(=O)CCC(=O)NCCCC[C@H](NS(=O)(=O)C12CC3CC(CC(C3)C1)C2)C(=O)N1CCC[C@H]1C(=O)N[C@H](C(=O)C(F)(F)F)C(C)C | 0.58 | – |
| CC(=O)N[C@@H](C)C(=O)N[C@@H](C)C(=O)N1CCC[C@H]1C(=O)N[C@@H](C)C(=O)C(F)(F)F (Ac-AAPA-CF3) | – | Ki [2]: 24000 nM |
| CC(C)[C@H](NC(=O)[C@@H]1CCCN1C(=O)[C@H](C)NC(=O)[C@H](C)NC(=O)OC(C)(C)C)C(=O)C(F)(F)F (Boc-AAPV-CF3) | 44 | – |
| CC(C)[C@H](NC(=O)[C@@H]1CCCN1C(=O)[C@H](C)NC(=O)[C@H](C)NC(=O)OCc1ccccc1)C(=O)C(F)(F)F (Cbz-AAPV-CF3) | 1 | – |
| COC(=O)CCC(=O)N[C@H](C(=O)N1CCC[C@H]1C(=O)N[C@@H](Cc1ccccc1)C(=O)C(F)(F)F)C(C)C (MeOSuc-Val-Pro-Phe-CF3) | – | Ki [3]: 200 nM |

Continued, in another order:

| Ki [1] [nM] | Structure (SMILES) | further results |
| --- | --- | --- |
| 4300 | CCOC(=O)C(F)(F)C(=O)[C@@H](NC(=O)[C@@H]1CCCN1C(=O)[C@H](C)NC(=O)[C@H](C)NC(=O)CCC(=O)OC)C(C)C | – |
| 850 | COC(=O)C(=O)[C@H](C)NC(=O)[C@@H]1CCCN1C(=O)[C@H](C)NC(=O)[C@@H]1CCCN1C(C)=O | – |
